Target: human Gal-3 (hGal-3) (Homo sapiens (Human), UniProt P17931)
Assay: competitive binding assay: binding of biotinylated hGal-3 to microplate-adsorbed asialofetuin (ASF), spectrophotometric
Conditions: Activity on hGal-3; mean values of several measurements
Description: Evaluation of Compound Inhibitory Activity (IC50)
The inhibitory activity of compounds is determined in competitive binding assays. This spectrophotometric assay measures the binding of biotinylated human Gal-3 (hGal-3) or human Gal-1 (hGal-1), respectively, to a microplate-adsorbed glycoprotein, asialofetuin (ASF) (Proc Natl Acad Sci USA. 2013 Mar. 26; 110(13):5052-7.). Alternatively, and preferably, a human Gal-1 version in which all six cysteines are substituted by serines may be used.
Briefly, compounds are serially diluted in DMSO (working dilutions). ASF-coated 384 well plates are supplemented with 22.8 μL/well of biotinylated hGal-3 or hGal-1 in assay buffer (i.e. 300-1000 ng/mL biotinylated hGal-3 or hGal-1) to which 1.2 μL of compound working dilutions are added and mixed.
Plates are incubated for 3 hours at 4° C., then washed with cold assay buffer (3×50 uL), incubated for 1 hour with 25 μL/well of a streptavidin-peroxidase solution (diluted in assay buffer to 80 ng/mL) at 4° C., followed by further washing steps with assay buffer (3×50 uL). Finally, 25 μL/well of ABTS substrate is added.
The calculated IC50 values may fluctuate depending on the daily assay performance. Fluctuations of this kind are known to those skilled in the art. IC50 values from several measurements are given as mean values.

human Gal-3 (hGal-3), sequence (P17931 whole entry): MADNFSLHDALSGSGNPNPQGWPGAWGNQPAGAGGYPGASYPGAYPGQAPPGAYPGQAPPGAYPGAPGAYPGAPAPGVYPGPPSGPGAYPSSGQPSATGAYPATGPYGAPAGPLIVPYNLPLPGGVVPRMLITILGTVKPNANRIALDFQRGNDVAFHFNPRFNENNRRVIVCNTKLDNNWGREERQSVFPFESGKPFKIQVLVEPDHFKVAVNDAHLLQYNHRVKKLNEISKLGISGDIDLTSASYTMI

COc1cc(-c2cn([C@H]3[C@@H](O)[C@@H](CO)O[C@@H](C(=O)N(c4cc(Br)cc(Br)c4)[C@H]4CC[C@@H]4O)[C@@H]3OC)nn2)cc(F)c1F [Example 2.3.11, (2R,3R,4S,5R,6R)-N-(3,5-dibromophenyl)-4-(4-(3,4-difluoro-5-methoxyphenyl)-1H-1,2,3-triazol-1-yl)-5-hydroxy-N-((1S,2S)-2-hydroxycyclobutyl)-6-(hydroxymethyl)-3-methoxytetrahydro-2H-pyran-2-carboxamide] gave an IC50 of 113 nM.
CO[C@@H]1[C@@H](n2cc(-c3ccc(Cl)c(Cl)c3)nn2)[C@@H](O)[C@@H](CO)O[C@H]1C(=O)N(c1cc(Br)cc(C#N)c1)[C@@H]1CC[C@H]1O [Example 2.8.5R, (2R,3R,4S,5R,6R)-N-(3-bromo-5-cyanophenyl)-4-(4-(3,4-dichlorophenyl)-1H-1,2,3-triazol-1-yl)-5-hydroxy-N-((1R,2R)-2-hydroxycyclobutyl)-6-(hydroxymethyl)-3-methoxytetrahydro-2H-pyran-2-carboxamide] was tested, and the IC50 was 446 nM.
With CO[C@@H]1[C@@H](n2cc(-c3ccc(C)c(F)c3F)nn2)[C@@H](O)[C@@H](CO)O[C@H]1C(=O)N(c1cc(Br)cc(C#N)c1)[C@@H]1CCC[C@H]1O [Example 1.11.5R, (2R,3R,4S,5R,6R)-N-(3-bromo-5-cyanophenyl)-4-(4-(2,3-difluoro-4-methylphenyl)-1H-1,2,3-triazol-1-yl)-5-hydroxy-N-((1R,2R)-2-hydroxycyclopentyl)-6-(hydroxymethyl)-3-methoxytetrahydro-2H-pyran-2-carboxamide] the IC50 was 73.1 nM.
CO[C@@H]1[C@@H](n2cc(-c3cc(F)c(F)c(F)c3)nn2)[C@@H](O)[C@@H](CO)O[C@H]1C(=O)N(c1cc(Br)cc(C#N)c1)[C@H]1CCC[C@@H]1O [Example 1.1.5, (2R,3R,4S,5R,6R)-N-(3-bromo-5-cyanophenyl)-5-hydroxy-N-((1S,2S)-2-hydroxycyclopentyl)-6-(hydroxymethyl)-3-methoxy-4-(4-(3,4,5-trifluorophenyl)-1H-1,2,3-triazol-1-yl)tetrahydro-2H-pyran-2-carboxamide] gave an IC50 of 23 nM.
In the case of CO[C@@H]1[C@@H](n2cc(-c3ccc(C#N)c(F)c3)nn2)[C@@H](O)[C@@H](CO)O[C@H]1C(=O)N(c1cc(Cl)cc(C#N)c1)[C@H]1CCC[C@@H]1O [Example 1.16.4, (2R,3R,4S,5R,6R)-N-(3-chloro-5-cyanophenyl)-4-(4-(4-cyano-3-fluorophenyl)-1H-1,2,3-triazol-1-yl)-5-hydroxy-N-((1S,2S)-2-hydroxycyclopentyl)-6-(hydroxymethyl)-3-methoxytetrahydro-2H-pyran-2-carboxamide], the IC50 is reported as 102 nM.
COc1cc(C#N)cc(N(C(=O)[C@@H]2O[C@H](CO)[C@H](O)[C@H](n3cc(-c4cc(F)cc(Br)c4)nn3)[C@H]2OC)[C@H]2CCC[C@@H]2O)c1 [Example 1.10.9, (2R,3R,4S,5R,6R)-4-(4-(3-bromo-5-fluorophenyl)-1H-1,2,3-triazol-1-yl)-N-(3-cyano-5-methoxyphenyl)-5-hydroxy-N-((1S,2S)-2-hydroxycyclopentyl)-6-(hydroxymethyl)-3-methoxytetrahydro-2H-pyran-2-carboxamide] showed an IC50 of 174 nM.
In the case of COc1cc(C#N)cc(N(C(=O)[C@@H]2O[C@H](CO)[C@H](O)[C@H](n3cc(-c4cc(F)cc(Br)c4)nn3)[C@H]2OC)[C@@H]2CCC[C@H]2O)c1 [Example 1.10.9R, (2R,3R,4S,5R,6R)-4-(4-(3-bromo-5-fluorophenyl)-1H-1,2,3-triazol-1-yl)-N-(3-cyano-5-methoxyphenyl)-5-hydroxy-N-((1R,2R)-2-hydroxycyclopentyl)-6-(hydroxymethyl)-3-methoxytetrahydro-2H-pyran-2-carboxamide], the IC50 is reported as 1200 nM.
CO[C@@H]1[C@@H](n2cc(-c3ccc(Cl)cc3)nn2)[C@@H](O)[C@@H](CO)O[C@H]1C(=O)N(c1cc(Cl)cc(C#N)c1)[C@@H]1CCC[C@H]1O [Example 1.18.4R, (2R,3R,4S,5R,6R)-N-(3-chloro-5-cyanophenyl)-4-(4-(4-chlorophenyl)-1H-1,2,3-triazol-1-yl)-5-hydroxy-N-((1R,2R)-2-hydroxycyclopentyl)-6-(hydroxymethyl)-3-methoxytetrahydro-2H-pyran-2-carboxamide] was tested, and the IC50 was 536 nM.
CO[C@@H]1[C@@H](n2cc(-c3cc(F)c(F)c(F)c3)nn2)[C@@H](O)[C@@H](CO)O[C@H]1C(=O)N(c1cc(Cl)cc(Cl)c1)[C@@H]1CC[C@H]1O [Example 2.1.2R, (2R,3R,4S,5R,6R)-N-(3,5-dichlorophenyl)-5-hydroxy-N-((1R,2R)-2-hydroxycyclobutyl)-6-(hydroxymethyl)-3-methoxy-4-(4-(3,4,5-trifluorophenyl)-1H-1,2,3-triazol-1-yl)tetrahydro-2H-pyran-2-carboxamide] gave an IC50 of 110 nM.
CO[C@@H]1[C@@H](n2cc(-c3ccc(C)c(F)c3)nn2)[C@@H](O)[C@@H](CO)O[C@H]1C(=O)N(c1cc(Br)cc(C#N)c1)[C@@H]1CCC[C@H]1O [Example 1.13.5R, (2R,3R,4S,5R,6R)-N-(3-bromo-5-cyanophenyl)-4-(4-(3-fluoro-4-methylphenyl)-1H-1,2,3-triazol-1-yl)-5-hydroxy-N-((1R,2R)-2-hydroxycyclopentyl)-6-(hydroxymethyl)-3-methoxytetrahydro-2H-pyran-2-carboxamide] was tested, and the IC50 was 167 nM.
CO[C@@H]1[C@@H](n2cc(-c3cc(F)c(Cl)c(F)c3)nn2)[C@@H](O)[C@@H](CO)O[C@H]1C(=O)N(c1cc(Cl)cc(C#N)c1)[C@@H]1CC[C@H]1O [Example 2.5.4R, (2R,3R,4S,5R,6R)-4-(4-(4-chloro-3,5-difluorophenyl)-1H-1,2,3-triazol-1-yl)-N-(3-chloro-5-cyanophenyl)-5-hydroxy-N-((1R,2R)-2-hydroxycyclobutyl)-6-(hydroxymethyl)-3-methoxytetrahydro-2H-pyran-2-carboxamide] gave an IC50 of 193 nM.
Work on CC(=O)O[C@@H]1[C@@H](n2cc(-c3cc(F)c(C)c(F)c3)nn2)[C@@H](O)[C@@H](CO)O[C@H]1C(=O)N(c1cc(Cl)cc(Cl)c1)[C@H]1CCC[C@@H]1O [Example 1A.4.2, (2R,3R,4S,5R,6R)-2-((3,5-dichlorophenyl)((1S,2S)-2-hydroxycyclopentyl)carbamoyl)-4-(4-(3,5-difluoro-4-methylphenyl)-1H-1,2,3-triazol-1-yl)-5-hydroxy-6-(hydroxymethyl)tetrahydro-2H-pyran-3-yl acetate] yielded an IC50 of 12.9 nM.
CO[C@@H]1[C@@H](n2cc(-c3cc(F)c(Cl)c(Cl)c3)nn2)[C@@H](O)[C@@H](CO)O[C@H]1C(=O)N(c1cc(Cl)cc(C#N)c1)[C@H]1CC[C@@H]1O [Example 2.17.4, (2R,3R,4S,5R,6R)-N-(3-chloro-5-cyanophenyl)-4-(4-(3,4-dichloro-5-fluorophenyl)-1H-1,2,3-triazol-1-yl)-5-hydroxy-N-((1S,2S)-2-hydroxycyclobutyl)-6-(hydroxymethyl)-3-methoxytetrahydro-2H-pyran-2-carboxamide] showed an IC50 of 79.2 nM.
CO[C@@H]1[C@@H](n2cc(-c3ccc(C)c(F)c3F)nn2)[C@@H](O)[C@@H](CO)O[C@H]1C(=O)N(c1cc(Cl)cc(C#N)c1)[C@H]1CCC[C@@H]1O [Example 1.11.4, (2R,3R,4S,5R,6R)-N-(3-chloro-5-cyanophenyl)-4-(4-(2,3-difluoro-4-methylphenyl)-1H-1,2,3-triazol-1-yl)-5-hydroxy-N-((1S,2S)-2-hydroxycyclopentyl)-6-(hydroxymethyl)-3-methoxytetrahydro-2H-pyran-2-carboxamide] was tested, and the IC50 was 21.9 nM.
For CO[C@@H]1[C@@H](n2cc(-c3cc(F)c(F)c(F)c3)nn2)[C@@H](O)[C@@H](CO)O[C@H]1C(=O)N(c1cccc(Cl)c1)[C@H]1CC[C@@H]1O [Example 2.1.1, (2R,3R,4S,5R,6R)-N-(3-chlorophenyl)-5-hydroxy-N-((1S,2S)-2-hydroxycyclobutyl)-6-(hydroxymethyl)-3-methoxy-4-(4-(3,4,5-trifluorophenyl)-1H-1,2,3-triazol-1-yl)tetrahydro-2H-pyran-2-carboxamide], the IC50 was 109 nM.
In the case of COc1cc(-c2cn([C@H]3[C@@H](O)[C@@H](CO)O[C@@H](C(=O)N(c4cc(C)cc(Br)c4)[C@H]4CC[C@@H]4O)[C@@H]3OC)nn2)cc(F)c1F [Example 2.3.12, (2R,3R,4S,5R,6R)-N-(3-bromo-5-methylphenyl)-4-(4-(3,4-difluoro-5-methoxyphenyl)-1H-1,2,3-triazol-1-yl)-5-hydroxy-N-((1S,2S)-2-hydroxycyclobutyl)-6-(hydroxymethyl)-3-methoxytetrahydro-2H-pyran-2-carboxamide], the IC50 is reported as 116 nM.
Compound COc1cc(-c2cn([C@H]3[C@@H](O)[C@@H](CO)O[C@@H](C(=O)N(c4cc(Br)cc(Br)c4)[C@H]4CCC[C@@H]4O)[C@@H]3OC)nn2)cc(F)c1F [Example 1.3.11, (2R,3R,4S,5R,6R)-N-(3,5-dibromophenyl)-4-(4-(3,4-difluoro-5-methoxyphenyl)-1H-1,2,3-triazol-1-yl)-5-hydroxy-N-((1S,2S)-2-hydroxycyclopentyl)-6-(hydroxymethyl)-3-methoxytetrahydro-2H-pyran-2-carboxamide] has an IC50 of 28.8 nM.
In the case of CO[C@@H]1[C@@H](n2cc(-c3ccc(Cl)c(Cl)c3)nn2)[C@@H](O)[C@@H](CO)O[C@H]1C(=O)N(c1cc(Cl)cc(C#N)c1)[C@@H]1CC[C@H]1O [Example 2.8.4R, (2R,3R,4S,5R,6R)-N-(3-chloro-5-cyanophenyl)-4-(4-(3,4-dichlorophenyl)-1H-1,2,3-triazol-1-yl)-5-hydroxy-N-((1R,2R)-2-hydroxycyclobutyl)-6-(hydroxymethyl)-3-methoxytetrahydro-2H-pyran-2-carboxamide], the IC50 is reported as 401 nM.

— patent US20230348442A1, “GALECTIN-3 INHIBITING 2-HYDROXYCYCLOALKANE-1-CARBAMOYL DERIVATIVES” (Idorsia Pharmaceuticals Ltd, priority 2020, published 2023)
